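In this assay, cells in 96-well plates receive the compound at five concentrations for 48 hours. Endpoints are linearly interpolated between the surrounding concentrations. TGI is the concentration that stops growth completely.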

These results are taken from PubChem BioAssay (NCI).

The first assay relates to MDA-MB-231 breast. In words: NCI tumour cell line growth inhibition, 48 h.
`N#Cc1c(N)[nH]c(=S)c(C#N)c1-c1cccc(Cl)c1`: the TGI is greater than 100 µM.
Still for that read-out and setting: the figure for `CO[C@@H](C(=O)OC1C=CC2(CC1)C(=O)N(C)c1ccccc12)c1ccccc1` (some centres not stated) is greater than 100 µM.

Another assay concerns DU-145 prostate. Nature of the assay: NCI tumour cell line growth inhibition, 48 h.
`CCCCN(CC)c1nc(C)nc2c1c(C)c(C)n2-c1c(C)cc(C)cc1C` had a TGI of 30.2 µM.
Compound `CC1C(c2cc(C(C)(C)C)c(O)c(C(C)(C)C)c2)c2cc3c(cc2OC1N1CCOCC1)OCO3` (configuration not stated) had a TGI greater than 100 µM.
On the same count and under the same terms, the value for `N#Cc1c(N)[nH]c(=S)c(C#N)c1-c1cccc(Cl)c1` was greater than 100 µM; that for `CO[C@@H](C(=O)OC1C=CC2(CC1)C(=O)N(C)c1ccccc12)c1ccccc1` (some centres not stated) was greater than 100 µM.

Another assay relates to SR leukemia. In words: NCI tumour cell line growth inhibition, 48 h.
For `CCCCN(CC)c1nc(C)nc2c1c(C)c(C)n2-c1c(C)cc(C)cc1C`, the TGI worked out at 31.9 µM.
The same measure, in the same setting: the value for `CC1C(c2cc(C(C)(C)C)c(O)c(C(C)(C)C)c2)c2cc3c(cc2OC1N1CCOCC1)OCO3` (configuration not stated) was greater than 100 µM; that for `N#Cc1c(N)[nH]c(=S)c(C#N)c1-c1cccc(Cl)c1` was 40.6 µM; that for `CO[C@@H](C(=O)OC1C=CC2(CC1)C(=O)N(C)c1ccccc12)c1ccccc1` (some centres not stated) was greater than 100 µM.

The test system of the next assay is SK-MEL-28 melanoma. Nature of the assay: NCI tumour cell line growth inhibition, 48 h.
`CCCCN(CC)c1nc(C)nc2c1c(C)c(C)n2-c1c(C)cc(C)cc1C` gave a TGI of 31.5 µM.
On to `CC1C(c2cc(C(C)(C)C)c(O)c(C(C)(C)C)c2)c2cc3c(cc2OC1N1CCOCC1)OCO3` (configuration not stated), for which the TGI stood at 40.5 µM.
`N#Cc1c(N)[nH]c(=S)c(C#N)c1-c1cccc(Cl)c1`: the TGI is greater than 100 µM.
Still for that read-out and setting: the figure for `CO[C@@H](C(=O)OC1C=CC2(CC1)C(=O)N(C)c1ccccc12)c1ccccc1` (some centres not stated) is greater than 100 µM.

The next assay has as its system A549 NSCLC. In words: NCI tumour cell line growth inhibition, 48 h.
As for `CCCCN(CC)c1nc(C)nc2c1c(C)c(C)n2-c1c(C)cc(C)cc1C`, the TGI is 30.2 µM.
`CC1C(c2cc(C(C)(C)C)c(O)c(C(C)(C)C)c2)c2cc3c(cc2OC1N1CCOCC1)OCO3` (configuration not stated) displayed a TGI of 48 µM.
On the same count and under the same terms, the figure for `N#Cc1c(N)[nH]c(=S)c(C#N)c1-c1cccc(Cl)c1` is greater than 100 µM; for `CO[C@@H](C(=O)OC1C=CC2(CC1)C(=O)N(C)c1ccccc12)c1ccccc1` (some centres not stated) it is greater than 100 µM.

The test system of a further assay is MOLT-4 leukemia. In words: NCI tumour cell line growth inhibition, 48 h.
In turn, `CCCCN(CC)c1nc(C)nc2c1c(C)c(C)n2-c1c(C)cc(C)cc1C` came in with a TGI of 30.1 µM.
As to `CC1C(c2cc(C(C)(C)C)c(O)c(C(C)(C)C)c2)c2cc3c(cc2OC1N1CCOCC1)OCO3` (configuration not stated), the TGI is greater than 100 µM.
Compound `N#Cc1c(N)[nH]c(=S)c(C#N)c1-c1cccc(Cl)c1` displayed a TGI of 57.8 µM.
On the same count and under the same terms, the figure for `CO[C@@H](C(=O)OC1C=CC2(CC1)C(=O)N(C)c1ccccc12)c1ccccc1` (some centres not stated) is greater than 100 µM.

The subject of another assay is EKVX NSCLC. Nature of the assay: NCI tumour cell line growth inhibition, 48 h.
For `CCCCN(CC)c1nc(C)nc2c1c(C)c(C)n2-c1c(C)cc(C)cc1C`, the TGI is 27.5 µM.
`CC1C(c2cc(C(C)(C)C)c(O)c(C(C)(C)C)c2)c2cc3c(cc2OC1N1CCOCC1)OCO3` (configuration not stated): the TGI is greater than 100 µM.
On to `N#Cc1c(N)[nH]c(=S)c(C#N)c1-c1cccc(Cl)c1`, for which the TGI worked out at 97.9 µM.
The same measure, in the same setting: the figure for `CO[C@@H](C(=O)OC1C=CC2(CC1)C(=O)N(C)c1ccccc12)c1ccccc1` (some centres not stated) is greater than 100 µM.

The subject of the next assay is HOP-92 NSCLC. Nature of the assay: NCI tumour cell line growth inhibition, 48 h.
In the case of `CCCCN(CC)c1nc(C)nc2c1c(C)c(C)n2-c1c(C)cc(C)cc1C`, the TGI is 21.5 µM.
Regarding `N#Cc1c(N)[nH]c(=S)c(C#N)c1-c1cccc(Cl)c1`, the TGI is greater than 100 µM.
Regarding `CO[C@@H](C(=O)OC1C=CC2(CC1)C(=O)N(C)c1ccccc12)c1ccccc1` (some centres not stated), the TGI is greater than 100 µM.

A further assay deals with MDA-MB-435. In words: NCI tumour cell line growth inhibition, 48 h.
`CCCCN(CC)c1nc(C)nc2c1c(C)c(C)n2-c1c(C)cc(C)cc1C` had a TGI of 33.3 µM.
Same read-out and setting: the value for `CC1C(c2cc(C(C)(C)C)c(O)c(C(C)(C)C)c2)c2cc3c(cc2OC1N1CCOCC1)OCO3` (configuration not stated) was 68.2 µM; that for `N#Cc1c(N)[nH]c(=S)c(C#N)c1-c1cccc(Cl)c1` was 49.7 µM; that for `CO[C@@H](C(=O)OC1C=CC2(CC1)C(=O)N(C)c1ccccc12)c1ccccc1` (some centres not stated) was greater than 100 µM.

The test system of the next assay is OVCAR-8 ovarian. In words: NCI tumour cell line growth inhibition, 48 h.
As for `CCCCN(CC)c1nc(C)nc2c1c(C)c(C)n2-c1c(C)cc(C)cc1C`, the TGI stood at 28.5 µM.
Still for that read-out and setting: the value for `CC1C(c2cc(C(C)(C)C)c(O)c(C(C)(C)C)c2)c2cc3c(cc2OC1N1CCOCC1)OCO3` (configuration not stated) was 60 µM.
In turn, `N#Cc1c(N)[nH]c(=S)c(C#N)c1-c1cccc(Cl)c1` displayed a TGI greater than 100 µM.
Take `CO[C@@H](C(=O)OC1C=CC2(CC1)C(=O)N(C)c1ccccc12)c1ccccc1` (some centres not stated): the TGI is greater than 100 µM.

A further assay has as its system SK-MEL-5 melanoma. In words: NCI tumour cell line growth inhibition, 48 h.
In the case of `CCCCN(CC)c1nc(C)nc2c1c(C)c(C)n2-c1c(C)cc(C)cc1C`, the TGI amounted to 17.6 µM.
On the same count and under the same terms, the value for `CC1C(c2cc(C(C)(C)C)c(O)c(C(C)(C)C)c2)c2cc3c(cc2OC1N1CCOCC1)OCO3` (configuration not stated) was 47.3 µM; that for `N#Cc1c(N)[nH]c(=S)c(C#N)c1-c1cccc(Cl)c1` was greater than 100 µM; that for `CO[C@@H](C(=O)OC1C=CC2(CC1)C(=O)N(C)c1ccccc12)c1ccccc1` (some centres not stated) was greater than 100 µM.

Another assay deals with OVCAR-5 ovarian. In words: NCI tumour cell line growth inhibition, 48 h.
`CCCCN(CC)c1nc(C)nc2c1c(C)c(C)n2-c1c(C)cc(C)cc1C` yielded a TGI of 28.8 µM.
Consider `CC1C(c2cc(C(C)(C)C)c(O)c(C(C)(C)C)c2)c2cc3c(cc2OC1N1CCOCC1)OCO3` (configuration not stated), for which the TGI was greater than 100 µM.
As for `N#Cc1c(N)[nH]c(=S)c(C#N)c1-c1cccc(Cl)c1`, the TGI is greater than 100 µM.
The compound `CO[C@@H](C(=O)OC1C=CC2(CC1)C(=O)N(C)c1ccccc12)c1ccccc1` (some centres not stated) had a TGI greater than 100 µM.

The next assay has as its system MALME-3M melanoma. In words: NCI tumour cell line growth inhibition, 48 h.
`CCCCN(CC)c1nc(C)nc2c1c(C)c(C)n2-c1c(C)cc(C)cc1C` came in with a TGI of 29.6 µM.
In turn, `N#Cc1c(N)[nH]c(=S)c(C#N)c1-c1cccc(Cl)c1` gave a TGI greater than 100 µM.

For a further assay, the system named is NCI-H522 lung. In words: NCI tumour cell line growth inhibition, 48 h.
Compound `CCCCN(CC)c1nc(C)nc2c1c(C)c(C)n2-c1c(C)cc(C)cc1C` yielded a TGI of 25.7 µM.
As to `CC1C(c2cc(C(C)(C)C)c(O)c(C(C)(C)C)c2)c2cc3c(cc2OC1N1CCOCC1)OCO3` (configuration not stated), the TGI was greater than 100 µM.
Compound `N#Cc1c(N)[nH]c(=S)c(C#N)c1-c1cccc(Cl)c1` registered a TGI of 56.7 µM.

A further assay deals with RXF 393 renal. Nature of the assay: NCI tumour cell line growth inhibition, 48 h.
Consider `CCCCN(CC)c1nc(C)nc2c1c(C)c(C)n2-c1c(C)cc(C)cc1C`, for which the TGI came to 19.7 µM.
With `N#Cc1c(N)[nH]c(=S)c(C#N)c1-c1cccc(Cl)c1`, the TGI stood at 46.6 µM.
